Test results from patent US20100222396A1 (Novartis AG, priority 2009, published 2010).

Assays:
[1] = biological target: T1, human orexin 2 receptor (hOx2R) (Homo sapiens, UniProt O43614); test: Calcium accumulation in cells (FLIPR), antagonism of orexin A, hOx2R; format: cell-based; conditions: for Kd: cells expressing human orexin 2 receptor, IC50 vs orexin A converted by Cheng and Prusoff correction; for inhibition at 10 µM: measured at a concentration of 10 μM of compound (cells marked ^a)
T1 construct: expressed in transfected cells
T1 sequence (O43614 1-444): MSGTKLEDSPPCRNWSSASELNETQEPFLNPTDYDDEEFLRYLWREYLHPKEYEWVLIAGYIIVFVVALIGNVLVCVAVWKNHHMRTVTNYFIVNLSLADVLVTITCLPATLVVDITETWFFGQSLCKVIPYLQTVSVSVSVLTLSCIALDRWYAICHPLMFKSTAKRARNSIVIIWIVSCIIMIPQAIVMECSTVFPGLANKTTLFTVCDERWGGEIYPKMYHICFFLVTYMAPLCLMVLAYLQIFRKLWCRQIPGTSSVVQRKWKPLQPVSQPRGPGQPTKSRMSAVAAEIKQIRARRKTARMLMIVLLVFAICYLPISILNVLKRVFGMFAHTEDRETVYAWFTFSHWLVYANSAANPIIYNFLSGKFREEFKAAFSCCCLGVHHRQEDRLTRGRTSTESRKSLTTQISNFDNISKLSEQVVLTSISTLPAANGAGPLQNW
Description: (§1) Cells expressing human orexin 1 or human orexin 2 receptors, were seeded at 8,000 cells/well in 384 well black-walled clear bottom, poly-D-lysine coated plates. After 24 h, the medium was removed and cells were washed once with phosphate buffered saline and serum-deprived overnight in assay buffer (130 mM NaCl, 5.4 mM KCl, 1.8 mM CaCl2, 0.8 mM MgSO4, 0.9 mM NaH2PO4, 25 mM glucose, 20 mM HEPES, pH 7.4) containing bovine serum albumin (1% w/v).
(§2) On the day of the experiment, the cells seeded in black plates were treated with assay buffer containing the Ca^2+ sensitive fluorescent dye Fluo-4-AM (2 μM), and probenecid (0.1 mM). After 1 h plates were washed twice with, and resuspended in, assay buffer containing probenecid (0.1 mM) using a multi plate washer. The plates were placed into a FLIPR II (Fluorometric Imaging Plate Reader, Molecular Devices, Sunnyvale, Calif., USA) and baseline fluorescence (fluorescence light units, FLU) was measured (5 measurements, 2 S each; laser excitation 488 nm at 0.6-1 W, CCD camera exposure 0.4 s) before addition of buffer alone (basal) or containing test compounds (either compound of formula I alone, agonist alone or agonist in the presence of various concentrations of compounds of formula I). Fluorescence measurements were then continued every 1 S for 120 S followed by every 4 S for 240 S.
(§3) The measurements were typically made in two sequences:
(§4) Compounds of formula I were tested usually in a concentration range from 10^−9 M to 10^−5 M.
(§5) In the second round, performed one hour later (to allow for equilibration), Orexin A was tested either in the absence (calibration curves, Orexin A agonist controls) or in the presence of compounds of formula I to determine antagonism.

[2] = biological target: T2, human orexin 1 receptor (hOx1R) (Homo sapiens, UniProt O43613); test: Calcium accumulation in cells (FLIPR), antagonism of orexin A, hOx1R; format: cell-based; conditions: for inhibition at 10 µM: measured at a concentration of 10 μM of compound (cells marked ^a); for Kd: cells expressing human orexin 1 receptor, IC50 vs orexin A converted by Cheng and Prusoff correction
T2 construct: expressed in transfected cells
T2 sequence (O43613 1-425): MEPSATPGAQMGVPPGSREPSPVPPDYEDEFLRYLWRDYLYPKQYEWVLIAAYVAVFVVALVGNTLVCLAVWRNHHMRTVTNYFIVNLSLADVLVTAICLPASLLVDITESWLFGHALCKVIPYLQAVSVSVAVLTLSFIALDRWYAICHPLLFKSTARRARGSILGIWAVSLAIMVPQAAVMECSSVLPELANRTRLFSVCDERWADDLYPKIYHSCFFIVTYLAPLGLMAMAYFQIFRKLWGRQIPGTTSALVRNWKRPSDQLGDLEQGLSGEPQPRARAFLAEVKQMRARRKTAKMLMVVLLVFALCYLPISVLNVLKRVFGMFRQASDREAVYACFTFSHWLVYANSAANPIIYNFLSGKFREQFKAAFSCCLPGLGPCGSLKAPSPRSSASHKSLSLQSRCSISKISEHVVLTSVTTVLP
Description: as §1, §2, §3, §4, §5

SMILES | Kd [1] [nM] | inhibition at 10 µM [2] [%] | Kd [2] [nM] | inhibition at 10 µM [1] [%]
CN(C(=O)c1ccccc1)[C@H](CCNC(=O)c1cccnc1)Cc1ccccc1 [Example 86, N—[(S)-3-(Benzoyl-methyl-amino)-4-phenyl-butyl]-nicotinamide] | 1500 | 4 |  | 
CN(C(=O)c1ccc2c(c1)OC(C)(C)O2)[C@H](CCNC(=O)c1ccccn1)Cc1ccccc1 [Example 101, Pyridine-2-carboxylic acid {(S)-3-[(2,2-dimethyl-benzo[1,3]dioxole-5-carbonyl)-methyl-amino]-4-phenyl-butyl}-amide] | 1680 | 13 |  | 
CN(C(=O)c1ccccc1)[C@H](CCNC(=O)c1ccccc1)Cc1ccccc1 [Example 15, N—[(S)-3-(Benzoyl-methyl-amino)-4-phenyl-butyl]-benzamide] | 272 | 17 |  | 
CN(C(=O)c1ccccc1Br)[C@H](CCNC(=O)c1ccccn1)Cc1ccccc1 [Example 100, Pyridine-2-carboxylic acid {(8)-3-[(2-bromo-benzoyl)-methyl-amino]-4-phenyl-butyl}-amide] | 131 |  | 1080 | 
CN(C(=O)c1ccccc1)[C@H](CCNC(=O)c1cc2ccccc2cn1)Cc1ccccc1 [Example 89, Isoquinoline-3-carboxylic acid [(S)-3-(benzoyl-methyl-amino)-4-phenyl-butyl]-amide] | 2550 |  | 5450 | 
Cc1cccc(C)c1C(=O)N(C)[C@H](CCNC(=O)c1ccccn1)Cc1ccccc1 [Example 98, Pyridine-2-carboxylic acid {(8)-3-[(2,6-dimethyl-benzoyl)-methyl-amino]-4-phenyl-butyl}-amide] |  | 28 |  | 24
CN(C(=O)c1ccccc1)[C@H](CCNC(=O)c1nccn1C)Cc1ccccc1 [Example 92, 1-Methyl-1H-imidazole-2-carboxylic acid [(S)-3-(benzoyl-methyl-amino)-4-phenyl-butyl]-amide] | 921 | 2 |  | 
CN(C(=O)c1ccc2ccn(C)c2c1)[C@H](CCNC(=O)c1ccccn1)Cc1ccccc1 [Example 85, 1-Methyl-1H-indole-6-carboxylic acid {(S)-1-benzyl-3-[(pyridine-2-carbonyl)-amino]-propyl}-methyl-amide] | 394 |  | 237 | 
CN(C(=O)c1ccccc1)[C@H](CCNC(=O)c1ccccn1)C(C)(C)c1ccccc1 [Example 114, Pyridine-2-carboxylic acid [(R)-3-(benzoyl-methyl-amino)-4-methyl-4-phenyl-pentyl]-amide] |  | 34 |  | 18
CN(C(=O)c1ccccc1)[C@H](CCNC(=O)c1ccc2c(c1)CCO2)Cc1ccccc1 [Example 94, 2,3-Dihydro-benzofuran-5-carboxylic acid [(S)-3-(benzoyl-methyl-amino)-4-phenyl-butyl]-amide] | 565 | 12 |  | 
CN(C(=O)c1ccccc1)[C@H](CCNC(=O)c1ccc2cccnc2c1)Cc1ccccc1 [Example 88, Quinoline-7-carboxylic acid [(S)-3-(benzoyl-methyl-amino)-4-phenyl-butyl]-amide] | 3090 | 19 |  | 
CN(C(=O)c1ccccc1)[C@H](CCNC(=O)c1ccc2ccccc2n1)Cc1ccccc1 [Example 87, Quinoline-2-carboxylic acid [(S)-3-(benzoyl-methyl-amino)-4-phenyl-butyl]-amide] | 1290 |  | 4420 | 
CC(=O)NCC[C@H](Cc1ccccc1)N(C)C(=O)c1ccc2c(c1)OCO2 [Example 109, Benzo[1,3]-dioxole-5-carboxylic acid ((S)-3-acetylamino-1-benzyl-propyl)-methyl-amide] | 1720 | 39 |  | 
COc1ccc(C(=O)N(C)[C@H](CCNC(=O)c2nc3ccccc3n2C)Cc2ccccc2)cc1 [Example 90, 1-Methyl-1H-benzoimidazole-2-carboxylic acid {(S)-3-[(4-methoxy-benzoyl)-methyl-amino]-4-phenyl-butyl}-amide] | 2540 |  | 1250 | 
CN(C(=O)c1ccccc1)[C@H](CCNC(=O)c1cccn1C)Cc1ccccc1 [Example 91, 1-Methyl-1H-pyrrole-2-carboxylic acid [(S)-3-(benzoyl-methyl-amino)-4-phenyl-butyl]-amide] | 375 | 16 |  | 
COc1ccc(C(=O)N(C)[C@H](CCNC(=O)c2cccn2C)Cc2ccccc2)cc1OC [Example 120, 1-Methyl-1H-pyrrole-2-carboxylic acid {(8)-3-[(3,4-dimethoxy-benzoyl)-methyl-amino]-4-phenyl-butyl}-amide] | 4 |  | 182 | 
CN(C(=O)c1ccc2c(c1)OCO2)[C@@H](Cc1ccccc1)[C@H](O)CNC(=O)c1ccc2c(c1)OCO2 [Example 72, Benzo[1,3]dioxole-5-carboxylic acid {(2R,3S)-3-[(benzo[1,3]dioxole-5-carbonyl)-methyl-amino]-2-hydroxy-4-phenyl-butyl}-amide] | 761 | 27 |  | 
CN(C(=O)c1ccc2c(c1)OCO2)[C@H](CCNC(=O)c1nc2ccccc2o1)Cc1ccccc1 [Example 108, Benzooxazole-2-carboxylic acid {(S)-3-[(benzo[1,3]dioxole-5-carbonyl)-methyl-amino]-4-phenyl-butyl}-amide] | 542 |  | 3990 | 
CN(C(=O)c1ccccc1)[C@H](CCNC(=O)c1ccccn1)[C@@H](O)c1ccccc1 [Example 115, Pyridine-2-carboxylic acid [(3R,4S)-3-(benzoyl-methyl-amino)-4-hydroxy-4-phenyl-butyl]-amide] |  | 13 |  | 33
CN(C(=O)c1ccccc1)[C@@H](Cc1ccccc1)[C@H](O)CNC(=O)c1ccccn1 [Example 69, Pyridine-2-carboxylic acid [(2R,3S)-3-(benzoyl-methyl-amino)-2-hydroxy-4-phenyl-butyl]-amide] | 1660 |  | 3520 | 
CN(C(=O)c1ccccc1)[C@H](CCNC(=O)c1ccccn1)[C@@H](F)c1ccccc1 [Example 116, Pyridine-2-carboxylic acid [(3R,4S)-3-(benzoyl-methyl-amino)-4-fluoro-4-phenyl-butyl]-amide] |  |  | 1550 | 29
CN(C(=O)c1ccccc1)[C@](C)(CCNC(=O)c1ccccn1)Cc1ccccc1 [Example 111, Pyridine-2-carboxylic acid [(S)-3-(benzoyl-methyl-amino)-3-methyl-4-phenyl-butyl]-amide] | 562 | 25 |  | 
